Experimental data reported in PubChem BioAssay (NCI).
Several values for one entry are separate records, joined by “and”; a condition that tells them apart may be missing. Equal entries are not always repeated.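 96-well plates; 48 h exposure; 5 concentrations. Endpoints by linear interpolation between flanking doses. Not reached: highest tested concentration assigned. GI50 is the concentration that inhibits growth by half. At the TGI there is no net growth.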

Assays:
Test in all cases: inhibition of tumour cell growth, NCI panel, 48 h
[1] = tested on: OVCAR-8 ovarian
[2] = tested on: UACC-62 melanoma
[3] = tested on: MOLT-4 leukemia
[4] = tested on: UO-31 renal
[5] = tested on: SNB-19 CNS
[6] = tested on: SF-539 CNS
[7] = tested on: HL-60(TB) leukemia
[8] = tested on: SK-MEL-2 melanoma
[9] = tested on: HOP-92 NSCLC
[10] = tested on: NCI-H522 lung

Structure (SMILES) | GI50 [1] [µM] | TGI [1] [µM] | GI50 [2] [µM] | TGI [2] [µM] | GI50 [3] [nM] | TGI [3] | GI50 [4] [µM] | TGI [4] | GI50 [5] [µM] | TGI [5] [µM] | GI50 [6] [µM] | TGI [6] [µM] | GI50 [7] [nM] | TGI [7] [µM] | GI50 [8] [µM] | TGI [8] [µM] | GI50 [9] [µM] | TGI [9] [µM] | GI50 [10] [nM] | TGI [10]
O=C(Nc1ccccc1F)c1ccc(NC2=C(Cl)C(=O)N(Cc3ccccc3)C2=O)cc1 | 2.84 | 7.86 | 4.39 | 15.9 | 2450 | 6.79 µM | 1.86 | 3.6 µM | 11.6 | 23.8 | 6.18 | 18 | 1720 | 3.36 | 6.84 | 18.4 | 1.91 | 5.03 | 2210 | 5.34 µM
Cc1nc2ccc(NCCN(C)C)c3c(=O)c4cc(O)ccc4n1c23 |  | 2.37 |  | 5.63 |  | 0.904 µM |  | 9.14 µM |  | 7.06 |  | 12.2 |  | 3.1 |  | 13.4 |  | 6.96 |  | 1.98 µM
Cc1[nH]nc(C(=O)Nc2n[nH]c3ccccc23)c1[N+](=O)[O-] | > 100 | > 100 | > 93.7 | > 100 | > 62500 | 97.7 µM | > 100 | > 100 µM | > 100 | > 100 | > 100 | > 100 | > 63000 | > 96.1 | > 100 | > 100 | > 100 | > 100 | 39400 | > 100 µM
N#Cc1ccc2oc3ccc(C#N)cc3c(=O)c2c1 |  | > 100 |  | 41.6 |  | 46.9 µM |  | > 100 µM |  | 64.8 |  | 43.6 |  | 38.5 |  | 37.4 |  | > 100 |  | > 100 µM
Oc1ccc(-c2nc3ccc4[nH]ncc4c3c3c2CCCC3)c2cccnc12 | 0.148 | 10.8 | 0.512 | 1.97 | 393 | 12.8 µM | 0.128 | 0.934 µM | 0.164 | 13.1 | 0.145 | 1.87 | 639 | 3.14 | 0.452 | 3.5 | 0.11 | 0.794 | 119 | 5.2 µM
CC(C)c1ccc(O)c(=O)cc1 | 3.54 | > 100 |  | 21.8 | 2160 | > 44.8 µM and 6.22 µM | 6.31 | 35.7 µM and 71.7 µM | 15.3 | > 71.4 | 7.69 | 17 | 2510 | > 24.5 | 34.5 | 39 | 3.12 | > 100 | 3400 | 24.5 µM and 24.4 µM
O=C1CCC2CCOc3ccc(O)c1c32 (stereo not drawn) |  | > 100 |  | > 100 |  | > 100 µM |  | > 100 µM |  | > 100 |  | > 100 |  | > 100 |  | > 100 |  | > 100 |  | > 100 µM
Cc1ccc([Se][Se]c2ccc(C)cc2)cc1 |  | > 100 |  | 31.7 |  | > 100 µM |  | 49.7 µM |  | > 100 |  | > 100 |  | 19.2 |  | > 100 |  | 22.3 |  | 16.3 µM
Oc1ccc(SCc2ccc(NCc3ccccc3)cc2)cc1 |  | > 100 |  | 76.4 |  | 39.7 µM |  | 56.5 µM |  | 64.8 |  | > 100 |  | 68.9 |  | 61.1 |  | > 100 |  | 98.2 µM
Nc1c(O)c(S(=O)(=O)O)c(O)c2c1C(=O)c1ccccc1C2=O | 2.98 | 13.4 | 3.21 | 65.6 | 1900 | 4.91 µM | 2.47 | 9.13 µM | 3.8 | 52.4 | 6.36 | 30.6 | 1560 | 3.65 | 2.25 | 6.21 | 1.5 | 4.65 | 2680 | 9.17 µM
CCc1nc(N)nc(N)c1-c1ccc(Cl)c(N=NN(C)C)c1 |  | > 100 |  | 76.8 |  | 73.5 µM |  | > 70.4 µM |  | > 100 |  | 56.9 |  | > 52.9 |  | 62.1 |  | > 100 |  | 99.6 µM
CC12CCC(O)CC1CCC1C2CCC2(C)C(C3=CC(=O)OC3)CCC12 (stereo not drawn) | 16.9 | > 100 | 0.522 |  | > 100000 | > 100 µM | > 100 | > 100 µM | 14.2 | > 100 | 21.9 | > 100 | > 100000 | > 100 | 7.49 | 29.8 | 5.02 | 29.5 | 686 | 4.44 µM
CC1=N/C(=C\c2ccc([N+](=O)[O-])cc2)C(=O)O1 |  | > 100 |  | > 100 |  | > 100 µM |  | > 100 µM |  | > 100 |  | > 100 |  | > 100 |  | > 100 |  | > 100 |  | > 100 µM
CCCCC#Cc1cccc(=O)o1 | > 100 | > 100 | 30 | > 100 | 3620 | > 100 µM | 20.8 | > 100 µM | > 100 | > 100 | > 100 | > 100 | 1860 | > 100 | 20.8 | > 100 | 15.3 | > 100 | 7160 | > 100 µM
COc1ccc2c(c1)C(=O)c1c-2n(CCCCl)c(=O)c2cc(N(C)C)ccc12 | 42.5 | > 100 | 41 | > 100 | > 100000 | > 100 µM | > 100 | > 100 µM | 56.4 | > 100 | 12.4 | 47.4 | > 100000 | > 100 | > 100 | > 100 | 3.42 | 23.4 | 18900 | > 100 µM
C#CC#CC#CC#CC#CC#CC#CC#CCC1OC[C@H](COC(=O)O[C@@H](C(=O)O[C@H]2C[C@@]3(O)[C@@H](OC(=O)c4ccccc4)[C@@H]4[C@]5(OC(C)=O)CO[C@@H]5C[C@H](O)[C@@]4(C)C(=O)[C@H](OC(C)=O)C(=C2C)C3(C)C)[C@@H](NC(=O)c2ccccc2)c2ccccc2)O1 (stereo partly drawn) | 0.561 | > 33.3 | 0.907 | > 33.3 | 443 | > 33.3 µM | > 33.3 | > 33.3 µM | 1.14 | > 33.3 | 0.298 | 4.68 | 172 | > 10.9 | 1.56 | > 33.3 | > 18.5 | > 33.3 | 648 | > 33.3 µM
CS(=O)(=O)CS(=O)CS(=O)CS(=O)CC(NC(=O)CCC(N)C(=O)O)C(=O)O (stereo not drawn) |  | > 100 |  | > 100 |  | > 100 µM |  | > 100 µM |  | > 100 |  | > 100 |  | > 100 |  | > 100 |  | > 100 |  | > 100 µM
